Test system: mesenteric vascular bed
Experiment: In vitro arteries relaxation test (perfused mesenteric vascular bed pre-contracted with noradrenaline)
Parameters: species or system Wistar mice
Details: inferred from HPLC-MSMS/CCD of EHA and fraction 4 with FIGS. 6a and 6e; component not tested alone
Method: The vasodilatory activity of EHA and/or its fractions was determined and quantified by ID50 (Inhibitory Dose at 50%) in preparation of the mesenteric arterial bed of male and adult Wistar mice, in vitro. After anesthesia (thiopental, […] ip), a broad laparotomy is performed to the mice in order to expose the entire mesenteric circulation. The mesenteric artery was isolated and cannulated with cannula and polyethylene. Immediately 1 to 2 ml of Krebs nourishing solution with heparin was injected in order to avoid mesenteric intravascular coagulation. The mesenteric vascular bed was dissected, placed in a heated tub and perfused with Krebs solution at 37° C., by peristaltic pump (4 ml/minute). The perfusion pressure was recorded continuously in computer, through program (PowerLab 4/30). After a period of equilibration, it was added (30 μM) noradrenaline in the Krebs fluid in order to raise the vascular tone of the mesenteric vascular bed. Once the noradrenaline constant pressure response was obtained in the mesenteric vascular bed, increasing doses of EHA and/or fractions in the mesenteric vascular bed were injected. Perfusion pressure reductions induced by extracts and/or fractions were analyzed by the computer and expressed as reduction percent of noradrenaline-induced pressure response. […]

Structure (SMILES): Oc1cc(O)c2c(c1)O[C@H](c1ccc(O)c(O)c1)[C@H](O)[C@H]2c1c(O)cc(O)c2c1O[C@H](c1ccc(O)c(O)c1)[C@H](O)C2 [procyanidin B2]
- activity of extract component inferred from chromatogram and artery relaxation test: compound with the highest activity
